Read-outs that look alike come from different tables or passages of the source.
Target: T1, TGFβ R1 (Homo sapiens, UniProt P36897)
T1 sequence (P36897 34-503): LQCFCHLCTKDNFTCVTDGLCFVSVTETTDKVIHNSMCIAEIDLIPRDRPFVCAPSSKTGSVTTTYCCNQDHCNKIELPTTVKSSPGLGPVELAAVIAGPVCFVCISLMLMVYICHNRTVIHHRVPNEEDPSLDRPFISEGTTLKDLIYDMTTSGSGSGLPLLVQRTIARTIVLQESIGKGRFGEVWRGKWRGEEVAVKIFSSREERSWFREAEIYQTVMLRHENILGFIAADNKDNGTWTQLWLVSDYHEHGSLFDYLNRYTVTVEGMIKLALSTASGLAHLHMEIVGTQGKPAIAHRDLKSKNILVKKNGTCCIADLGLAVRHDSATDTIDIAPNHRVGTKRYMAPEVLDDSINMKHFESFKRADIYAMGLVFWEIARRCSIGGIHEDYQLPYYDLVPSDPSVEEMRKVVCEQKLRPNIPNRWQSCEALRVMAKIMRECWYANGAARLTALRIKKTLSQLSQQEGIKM
Test: TGFβ R1 autophosphorylation protocol (33P-ATP, phosphocellulose filter plate)
Format: biochemical
Conditions: 10 uM ATP, read-out: IC50 for Kinase Inhibition
In short: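 Incorporation of 33P from γ-33P-ATP (10 uM ATP final) into the kinase itself (170 nM) measured by phosphocellulose capture and scintillation counting. Incubation 20 min at room temperature in 20 mM MOPS pH 7 with […]; final DMSO ≤1%.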

[1] = 170 nM TGFβ R1, 20 minutes at room temperature
[2] = 170 nM TGFβ R1, room temperature 20 minutes

IC50 [1] [nM]	IC50 [2] [nM]	Structure (SMILES)
38	–	COc1cnc(-c2cc(Cl)ccc2F)nc1Nc1ccncc1C(=O)NC1CC1CO (centres unmarked) [Compound 141, 4-[2-(5-Chloro-2-fluoro-phenyl)-5-methoxy-pyrimidin-4-ylamino]-N-(2-hydroxymethyl-cyclopropyl)-nicotinamide]
47	–	COc1cnc(-c2cc(Cl)ccc2F)nc1Nc1ccncc1C(=O)NCCCN(C(=O)CC1O[C@H](CO)[C@@H](O)[C@H](O)[C@H]1O)C(C)C (some centres unmarked) [Compound 149, 4-[2-(5-Chloro-2-fluoro-phenyl)-5-methoxy-pyrimidin-4-ylamino]-N-(3-[isopropyl-[2-(3,4,5-trihydroxy-6-hydroxymethyl-tetrahydro-pyran-2-yl)-acetyl]-amino]-propyl)-nicotinamide]
10	–	CC(C)c1cnc(-c2cc(Cl)ccc2F)nc1Nc1ccncc1C(=O)NC1(CO)CC1 [Compound 150, 4-[2-(5-Chloro-2-fluoro-phenyl)-5-isopropyl-pyrimidin-4-ylamino]-N-(1-hydroxymethyl-cyclopropyl)-nicotinamide]
19	–	COc1cnc(-c2cc(Cl)ccc2F)nc1Nc1ccncc1C(=O)NCCCN(CCC1O[C@H](CO)[C@@H](O)[C@H](O)[C@@H]1O)C(C)C (some centres unmarked) [Compound 153, 4-[2-(5-Chloro-2-fluoro-phenyl)-5-methoxy-pyrimidin-4-ylamino]-N-(3-{isopropyl-[2-(3,4,5-trihydroxy-6-hydroxymethyl-tetrahydro-pyran-2-yl)-ethyl]-amino}-propyl)-nicotinamide]
8	–	COc1cnc(-c2cc(Cl)ccc2F)nc1Nc1ccncc1C(=O)NCCCN1CC[C@@H](F)C1 [Compound 155, 4-[2-(5-Chloro-2-fluoro-phenyl)-5-methoxy-pyrimidin-4-ylamino]-N-[3-(3-fluoro-pyrrolidin-1-yl)-propyl]-nicotinamide]
–	9	COc1cnc(-c2cc(Cl)ccc2F)nc1Nc1ccncc1C(=O)NC1CC1CO (centres unmarked) [Compound 160, 4-[2-(5-Chloro-2-fluoro-phenyl)-5-methoxy-pyrimidin-4-ylamino]-N-(2-hydroxymethyl-cyclopropyl)-nicotinamide]
–	4	CC(C)c1cnc(-c2cc(Cl)ccc2F)nc1Nc1ccncc1C(=O)NCCCN1CCCC1 [Compound 161, 4-[2-(5-Chloro-2-fluoro-phenyl)-5-isopropyl-pyrimidin-4-ylamino]-N-(3-pyrrolidin-1-yl-propyl)-nicotinamide]
–	42	COc1cnc(-c2cc(Cl)ccc2F)nc1Nc1ccncc1C(=O)NC1(CO)CC1 [Compound 162, 4-[2-(5-Chloro-2-fluoro-phenyl)-5-methoxy-pyrimidin-4-ylamino]-N-(1-hydroxymethyl-cyclopropyl)-nicotinamide]
–	33	COc1cnc(-c2cc(Cl)ccc2F)nc1Nc1ccncc1C(=O)NCCCOCC(O)CO (centres unmarked) [Compound 163, 4-[2-(5-Chloro-2-fluoro-phenyl)-5-methoxy-pyrimidin-4-ylamino]-N-[3-(2,3-dihydroxy-propoxy)-propyl]-nicotinamide]
–	2	CC(C)c1cnc(-c2cc(Cl)ccc2F)nc1Nc1ccncc1C(=O)NCCCN1CCC[C@H]1CO [Compound 164, 4-[2-(5-Chloro-2-fluoro-phenyl)-5-isopropyl-pyrimidin-4-ylamino]-N-[3-(2-hydroxymethyl-pyrrolidin-1-yl)-propyl]-nicotinamide]
–	27	CC(C)(O)CNC(=O)c1cnccc1Nc1nc(-c2cc(Cl)ccc2F)ncc1C1CC1 [Compound 165]
–	5	COc1cnc(-c2cc(Cl)ccc2F)nc1Nc1ccncc1C(=O)NCCCN1CCC[C@@H]1C(N)=O [Compound 166, N-[3-(2-Carbamoyl-pyrrolidin-1-yl)-propyl]-4-[2-(5-chloro-2-fluoro-phenyl)-5-methoxy-pyrimidin-4-ylamino]-nicotinamide]

Second part, the molecule before the results:

Structure (SMILES)	IC50 [1] [nM]	IC50 [2] [nM]
COc1cnc(-c2cc(Cl)ccc2F)nc1Nc1ccncc1C(=O)NCCCNC(=O)CO[C@H]1O[C@H](CO)[C@H](O)[C@H](O)[C@H]1O [Compound 140, 4-[2-(5-Chloro-2-fluoro-phenyl)-5-methoxy-pyrimidin-4-ylamino]-N-{3-[2-(3,4,5-trihydroxy-6-hydroxymethyl-tetrahydro-pyran-2-yloxy)-acetylamino]-propyl}-nicotinamide]	44	–
COc1cnc(-c2cc(Cl)ccc2F)nc1Nc1ccncc1C(=O)NCCNCCOC1O[C@H](COC(C)=O)[C@@H](OC(C)=O)[C@H](OC(C)=O)[C@H]1OC(C)=O (some centres unmarked) [Compound 142, Acetic acid 3,4,5-triacetoxy-6-(2-[2-({4-[2-(5-chloro-2-fluoro-phenyl)-5-methoxy-pyrimidin-4-ylamino]-pyridine-3-carbonyl]-amino)-ethylamino]-ethoxy}tetrahydro-pyran-2-ylmethyl ester]	10	–
COc1cnc(-c2cc(Cl)ccc2F)nc1Nc1ccncc1C(=O)NCCNC(=O)COC1O[C@H](COC(C)=O)[C@@H](OC(C)=O)[C@H](OC(C)=O)[C@H]1OC(C)=O (some centres unmarked) [Compound 143, Acetic acid 3,4,5-triacetoxy-6-{[2-({4-[2-(5-chloro-2-fluoro-phenyl)-5-methoxy-pyrimidin-4-ylamino]-pyridine-3-carbonyl}-amino)-ethylcarbamoyl]-methoxy}-tetrahydro-pyran-2-ylmethyl ester]	183	–
COc1cnc(-c2cc(Cl)ccc2F)nc1Nc1ccncc1C(=O)NCCNCCOC1O[C@H](CO)[C@@H](O)[C@H](O)[C@H]1O (some centres unmarked) [Compound 144, 4-[2-(5-chloro-2-fluoro-phenyl)-5-methoxy-pyrimidin-4-ylamino]-N-{2-[2-(3,4,5-trihydroxy-6-hydroxymethyl-tetrahydro-pyran-2-yloxy)-ethylamino]-ethyl)-nicotinamide]	10	–
COc1cnc(-c2cc(Cl)ccc2F)nc1Nc1ccncc1C(=O)NCCNC(=O)COC1O[C@H](CO)[C@@H](O)[C@H](O)[C@H]1O (some centres unmarked) [Compound 145, 4-[2-(5-Chloro-2-fluoro-phenyl)-5-methoxy-pyrimidin-4-ylamino]-N-{2-[2-(3,4,5-trihydroxy-6-hydroxymethyl-tetrahydro-pyran-2-yloxy)-acetylamino]-ethyl)-nicotinamide]	53	–
COc1cnc(-c2cc(Cl)ccc2F)nc1Nc1ccncc1C(=O)NCCCNC(=O)CC1O[C@H](CO)[C@@H](O)[C@H](O)[C@H]1O (some centres unmarked) [Compound 146]	102	–
COc1cnc(-c2cc(Cl)ccc2F)nc1Nc1ccncc1C(=O)NCCNC(=O)CC1O[C@H](CO)[C@@H](O)[C@H](O)[C@H]1O (some centres unmarked) [Compound 147, 4-[2-(5-Chloro-2-fluoro-phenyl)-5-methoxy-pyrimidin-4-ylamino]-N-{2-[2-(3,4,5-trihydroxy-6-hydroxymethyl-tetrahydro-pyran-2-yl)-acatylamino]-ethyl}-nicotinamide]	125	–
COc1cnc(-c2cc(Cl)ccc2F)nc1Nc1ccncc1C(=O)NC1CCN(C(=O)CC2O[C@H](CO)[C@@H](O)[C@H](O)[C@H]2O)CC1 (some centres unmarked) [Compound 148, 4-[2-(5-Chloro-2-fluoro-phenyl)-5-methoxy-pyrimidin-4-ylamino]-N-{1-[2-(3,4,5-trihydroxy-6-hydroxymethyl-tetrahydro-pyran-2-yl)-acetyl]-piperidin-4-yl}-nicotinamide]	207	–
COc1cnc(-c2cc(Cl)ccc2F)nc1Nc1ccncc1C(=O)NCCNCCC1O[C@H](CO)[C@@H](O)[C@H](O)[C@@H]1O (some centres unmarked) [Compound 151]	4	–
COc1cnc(-c2cc(Cl)ccc2F)nc1Nc1ccncc1C(=O)NC1CCN(CCC2O[C@H](CO)[C@@H](O)[C@H](O)[C@@H]2O)CC1 (some centres unmarked) [Compound 152, 4-[2-(5-Chloro-2-fluoro-phenyl)-5-methoxy-pyrimidin-4-ylamino]-N-{1-[2-(3,4,5-trihydroxy-6-hydroxymethyl-tetrahydro-pyran-2-yl)-ethyl]-piperidin-4-yl}-nicotinamide]	28	–
COc1cnc(-c2cc(Cl)ccc2F)nc1Nc1ccncc1C(=O)NCCCNCCC1O[C@H](CO)[C@@H](O)[C@H](O)[C@@H]1O (some centres unmarked) [Compound 154, 4-[2-(5-Chloro-2-fluoro-phenyl)-5-methoxy-pyrimidin-4-ylamino]-N-{3-[2-(3,4,5-trihydroxy-6-hydroxymethyl-tetrahydro-pyran-2-yl)-ethylamino]-propyl}-nicotinamide]	10	–
COc1cnc(-c2cc(Cl)ccc2F)nc1Nc1ccncc1C(=O)NCCNCCOC1O[C@H](COC(C)=O)[C@H](OC(C)=O)[C@H](OC(C)=O)[C@H]1OC(C)=O (some centres unmarked) [Compound 157, Acetic acid 3,4,5-triacetoxy-6-{2-[2-[{4-[2-(5-chloro-2-fluoro-phenyl)-5-methoxy-pyrimidin-4-ylamino]-pyridine-3-carbonyl}amino)-ethylamino]-ethoxy}-tetrahydro-pyran-2-ylmethyl-ester]	25	–
COc1cnc(-c2cc(Cl)ccc2F)nc1Nc1ccncc1C(=O)NCCNCCOC1O[C@H](CO)[C@H](O)[C@H](O)[C@H]1O (some centres unmarked) [Compound 158]	5	–
COc1cnc(-c2cc(Cl)ccc2F)nc1Nc1ccncc1C(=O)NCCNC(=O)COC1O[C@H](CO)[C@H](O)[C@H](O)[C@H]1O (some centres unmarked) [Compound 159, 4-[2-(5-Chloro-2-fluoro-phenyl)-5-methoxy-pyrimidin-4-ylamino]-N-{2-[2-(3,4,5-trihydroxy-6-hydroxymethyl-tetrahydro-pyran-2-yloxy)-acetylamino]-ethyl}-nicotinamide]	58	–

From patent US20060281763A1, “Carboxamide inhibitors of TGFbeta” (priority 2005, published 2006)
